# Read-outs that look alike come from different tables or passages of the source.
# What was measured:
# [1] = tested on: Mycobacterium tuberculosis Ra; experiment: XTT assay, anti-mycobacterial activity; format: cell-based, M. tuberculosis H37Ra (ATCC 25177); conditions: for inhibition at 100 µg/mL: inhibition at 100 μg/ml, 8th day of incubation
# Procedure: M. tuberculosis H37Ra (ATCC 25177) cells, obtained from MTCC (Chandigarh, India), were grown to logarithmic phase (O.D, 0.595˜1.0) in a defined medium (M. pheli medium) under aerobic conditions in a shaker incubator (Thermo Electron Corporation Model 481) maintained at 150 rpm and 37° C. After growth, the culture was sonicated for 2 min using water bath sonicator. Sonicated cells were used for inoculation in micro plate wells. […] of culture containing ˜1×10^5 cells/ml was added to each well of 96 well plates. Camptothecanoid 1, 2 and 3 and Phthalate, […], dissolved in DMSO (Sigma), were added to the wells to attain a final concentration of 100 µg/ml respectively for screening. Then, the plate was incubated in a CO2 incubator at 37° C. The plate was taken out on the 8th day of incubation to measure the viable cell counts. The optical density of the culture was measured before addition of XTT (Sigma) at 470 nm which was served as a blank for the MIC calculations. XTT, 200 µM, was added and incubated for 20 min at 37° C. after shaking for 1 min. After 20 min of incubation, 60 µM Menadione (Sigma) was added and incubated at 37° C. for 40 min after mixing of 1 min. Finally, the optical density of the suspension was measured at 470 nm by using microplate reader. Isoniazid (Sigma) was used as a positive control.
# THP 1 cell line = experiment: MTT cell proliferation assay; format: cell-based; conditions: Homo sapiens, read-out: MTT assay against THP 1 cell line % Inhibition
# Procedure: Camptothecanoid 1, 2 and 3 and Phthalate were tested for their inhibitory effect on THP-1 cells. About 10,000 cells were taken per well in 96-well tissue culture plates and treated with test samples at 100 μg/ml for 72 h. Vehicle control (DMSO, 1%) and positive control (Paclitaxel, 100 μg/ml) was run simultaneously. Cell proliferation was assessed with 10 μl from 5 mg/ml stock solution of tetrazolium salt (MTT) dissolved in cell culture medium and subsequently incubated for additional 1 h at 37° C., 5% of CO2 and 95% humidity in incubator. The violet coloured formazan crystals formed were solubilized in 200 μl of isopropanol and incubated for another 4 h. The optical density was read on a micro plate reader (Spectramax plus384 plate reader, Molecular Devices Inc) at 490 nm filter against a blank prepared from cell-free wells. Absorbance given by cells treated with the carrier DMSO alone was taken as 100% cell growth (Table 2).
# [2] = tested on: Sitophilus oryzae and Rhizopertha dominica; experiment: whole plant or invertebrate; format: in vivo
# Procedure: The bioefficacy of the extracts were screened against S. oryzae and R. dominica on wheat at 1000 ppm. Required quantity of the extract dissolved in 6 ml of the solvent was pipetted over 60 gm wheat, taken in a 500 ml beaker. The grain was stirred with a glass rod to obtain uniform application. The control grain received the solvent alone. The treated grain was spread on petridish and kept overnight (12 hrs) for the solvent to evaporate. The 60 gm grain was divided into three lots of 20 gm each, taken in test tubes 25 mm diameter and 95 mm long.
# Fifteen unsexed adults, 1-2 weeks old, of the rice weevil, Sitophilus oryzae and the lesser grain borer, Rhizopertha dominica were seeded into the tubes separately. The tubes were covered with muslin held by rubber bands. The mortality of the test insects was recorded after 1, 3, 7, 14 and 21 days. After the last count, the insects were discarded and the grain incubated to obtain the F1 progeny. The number of emerging progeny was recorded every second day till the emergence was complete. The progeny/adult day was calculated by Kazmaier et. al method. The progeny/adult day corrects for the reduction in the number of progeny due to adult mortality. A significant reduction in the progeny/adult day compared to the control indicates Insect Growth Regulating (IGR) activity, which is presented in Tables 1, 2 and 3.
# Camptothecin obtained from Sigma Aldrich was assayed on wheat against S. oryzae and R. dominica as in example 1.
# [3] = THP-1, inhibition at 100 μg/ml, 72 h
smiles,measurement,setting,value
CC[C@H](OC1OC(CO)C(O)C(O)C1O)c1cc2n(c(=O)c1C)Cc1cc3ccccc3nc1-2 (stereo partly shown) [Camptothecanoid 1],inhibition at 100 µg/mL,[1],48.3%
same,inhibition at 100 µg/mL,"THP 1 cell line; THP-1, 72 h",70.9%
CC[C@](O)(C(=O)O)c1cc2n(c(=O)c1COC(C)=O)Cc1cc3ccccc3nc1-2 [Camptothecanoid 2],inhibition at 100 µg/mL,[1],88.4%
same,inhibition at 100 µg/mL,"THP 1 cell line; THP-1, 72 h",87.5%
CC[C@](O)(C(=O)O)c1cc2n(c(=O)c1COC(C)=O)Cc1cc3c(OC)cccc3nc1-2 [Camptothecanoid 3],inhibition at 100 µg/mL,[1],59%
same,inhibition at 100 µg/mL,"THP 1 cell line; THP-1, 72 h",90.2%
CC[C@@]1(O)C(=O)OCc2c1cc1n(c2=O)Cc2cc3ccccc3nc2-1 [Camptothecin],No. of F1 progeny,[2]; 6.25 ppm on wheat,00
same,No. of F1 progeny,[2]; 12.50 ppm on wheat,00
same,adult mortality (in words),[2]; 12.50 ppm on wheat,no adult mortality
same,No. days for 100% kill,[2]; 25 ppm on wheat,21 days
same,No. of F1 progeny,[2]; 25 ppm on wheat,00
same,No. days for 100% kill,[2]; 50 ppm on wheat,14 days
same,No. of F1 progeny,[2]; 50 ppm on wheat,00
same,No. days for 100% kill,[2]; 75 ppm on wheat,7 days
same,No. of F1 progeny,[2]; 75 ppm on wheat,00
same,No. days for 100% kill,[2]; 100 ppm on wheat,3 days
same,No. of F1 progeny,[2]; 100 ppm on wheat,00
same,mortality at 6.25 ppm,[2]; Sitophilus oryzae,0%
same,mortality at 12.5 ppm,[2]; Sitophilus oryzae,0%
same,mortality at 25 ppm,[2]; Sitophilus oryzae,100%
same,mortality at 50 ppm,[2]; Sitophilus oryzae,100%
same,mortality at 75 ppm,[2]; Sitophilus oryzae,100%
same,mortality at 100 ppm,[2]; Sitophilus oryzae,100%
same,inhibition at 12.5 ppm,"[2]; Sitophilus oryzae, read-out: inhibition of F1 progeny",100%
NNC(=O)c1ccncc1 [Isoniazid],IC90,"[1]; read-out: IC90, XTT assay Mycobacterium tuberculosis Ra",0.05 µg/mL
CC(=O)O[C@H]1C(=O)[C@@]2(C)[C@H]([C@H](OC(=O)c3ccccc3)[C@]3(O)C[C@H](OC(=O)[C@H](O)[C@@H](NC(=O)c4ccccc4)c4ccccc4)C(C)=C1C3(C)C)[C@]1(OC(C)=O)CO[C@@H]1C[C@@H]2O [Paclitaxel],inhibition at 100 µg/mL,THP 1 cell line; [3],61%
CCCCCCCC(CC)COC(=O)c1ccccc1C(=O)OCC(CC)CCCCCCC (stereo not shown) [Phthalate],inhibition at 100 µg/mL,[1],45.6%
same,inhibition at 100 µg/mL,THP 1 cell line; [3],20.1%

# Reference: patent US9888690B2, “Insecticidal compounds from Nothapodites foetida and process for the extraction thereof” (priority 2011, dated 2018)
